# Patent publication US8575145B2, “Triazolopyridine compounds as PIM kinase inhibitors” (Array BioPharma Inc., priority 2008, dated 2013)
# Structures can show the parent of a compound that is named as a salt. Where two headings read alike, the source gives them in different places.
# Legend:
# [1] = target: PIM-1 (Homo sapiens (Human), UniProt P11309); test: PIM-1 Enzyme Assay; format: biochemical
# Protocol: The amount of radiolabeled product is then measured by liquid scintillation counting. The final buffer conditions were as follows: 20 mM K^+MOPS, pH 7.4, 10 mM MgCl2, 0.005% Tween-20, 1 mM DTT. […] Incubations were carried out for 60 min at 22° C. and quenched with 75 μL of 200 mM H3PO4, filtered through a Whatman P81 plate and washed (1×200 μL and 5×100 μL ) with 200 mM H3PO4. Liquid scintillation cocktail (50 μL ) was then added per well, and the plate was counted for 30 s/well using a TopCount NXT.
# One-μL aliquots of these were then transferred to the assay mixtures above to give a final concentration of DMSO of 2%. […] For each plate, percent of control (POC) values were calculated for each well. IC50's were estimated from the POC's using a standard 4-parameter logistic model. The IC50 is defined as the concentration of inhibitor at which the POC equals 50 for the fitted curve.
# [2] = target: GST-tagged recombinant full-length human PIM-2 (Homo sapiens (Human), UniProt Q9P1W9); test: PIM-2 Enzyme Assay; conditions: read-out: PIM-2 IC50
# Chain of GST-tagged recombinant full-length human PIM-2 (Q9P1W9 whole entry): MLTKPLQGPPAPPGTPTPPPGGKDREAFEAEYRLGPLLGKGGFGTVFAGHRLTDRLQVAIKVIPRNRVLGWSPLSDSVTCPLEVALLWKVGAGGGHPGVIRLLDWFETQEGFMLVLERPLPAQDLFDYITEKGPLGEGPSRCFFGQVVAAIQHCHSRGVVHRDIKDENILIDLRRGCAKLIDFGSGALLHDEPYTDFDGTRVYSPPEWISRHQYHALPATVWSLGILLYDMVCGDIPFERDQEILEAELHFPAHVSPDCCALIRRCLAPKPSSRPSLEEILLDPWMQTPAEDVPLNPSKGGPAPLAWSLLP
# [3] = target: recombinant rat PIM-3 (Rattus norvegicus (Rat), UniProt O70444); test: PIM-3 Enzyme Assay; conditions: read-out: PIM-3 IC50, 30 μM ATP, 0.5 nM PIM-3
# Chain of PIM-1 (P11309 whole entry, species assumed): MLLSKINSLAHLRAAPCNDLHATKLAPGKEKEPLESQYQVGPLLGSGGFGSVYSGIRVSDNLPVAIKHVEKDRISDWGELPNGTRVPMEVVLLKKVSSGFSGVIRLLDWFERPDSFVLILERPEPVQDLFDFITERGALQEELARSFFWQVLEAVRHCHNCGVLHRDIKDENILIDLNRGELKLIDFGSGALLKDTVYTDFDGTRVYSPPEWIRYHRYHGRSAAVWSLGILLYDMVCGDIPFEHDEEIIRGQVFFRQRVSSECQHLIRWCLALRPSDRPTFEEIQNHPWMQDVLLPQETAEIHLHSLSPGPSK
Structure (SMILES),IC50 [1] [µM],"IC50 ([2]; 4 μM ATP, […] PIM-2) [µM]",IC50 [3] [µM],"IC50 ([1]; 35 μM ATP, 0.25 nM PIM-1) [µM]",IC50 [2] [µM],"IC50 ([1]; 35 μM ATP, 0.25 nM PIM-1, dihydrochloride) [µM]","IC50 ([2]; 4 μM ATP, […] PIM-2, dihydrochloride) [µM]",IC50 ([3]; dihydrochloride) [µM]
"COC1(COc2cccc3ccc(-c4nnc5ccccn45)nc23)CCNCC1 [Example 73, 2-([1,2,4]triazolo[4,3-a]pyridin-3-yl)-8-((4-methoxypiperidin-4-yl)methoxy)quinoline bis(trifluoroacetate)]",0.00096,0.079,0.005,–,–,–,–,–
"c1cc(N[C@H]2CCNC2)c2nc(-c3nnc4ccccn34)ccc2c1 [Example 4, (S)-2-([1,2,4]Triazolo[4,3-a]pyridin-3-yl)-N-(pyrrolidin-3-yl)quinolin-8-amine]",–,6.03,0.105,0.022,–,–,–,–
"OCC1(COc2cccc3ccc(-c4nnc5ccccn45)nc23)CC1 [Example 22, (1-((2-([1,2,4]triazolo[4,3-a]pyridin-3-yl)quinolin-8-yloxy)methyl)cyclopropyl)methanol]",–,0.501,0.025,0.005,–,–,–,–
"c1cc(O[C@@H]2CCNC2)c2nc(-c3nnc4ccccn34)ccc2c1 [Example 11, (R)-2-([1,2,4]Triazolo[4,3-a]pyridin-3-yl)-8-(pyrrolidin-3-yloxy)quinoline]",–,2.47,0.033,0.023,–,–,–,–
"CC1(COc2cccc3ccc(-c4nnc5ccccn45)nc23)CCN(CCO)CC1 [Example 86, dihydrochloride]",–,–,0.01,0.003,0.142,–,–,–
"O[C@H]1CC[C@H](Nc2cccc3ccc(-c4nnc5ccccn45)nc23)CC1 [Example 3, (trans)-4-(2-([1,2,4]Triazolo[4,3-a]pyridin-3-yl)quinolin-8-ylamino)cyclohexanol]",–,0.807,0.025,0.003,–,–,–,–
"CC(C)(CN)COc1cccc2ccc(-c3nnc4ccc(C5CC5)cn34)nc12 [Example 64, 3-(2-(6-cyclopropyl-[1,2,4]triazolo[4,3-a]pyridin-3-yl)quinolin-8-yloxy)-2,2-dimethylpropan-1-amine dihydrochloride]",0.00064,–,0.005,–,0.323,–,–,–
"c1cc(OCCC2CCCCN2)c2nc(-c3nnc4ccccn34)ccc2c1 (stereo not drawn) [Example 15, 2-([1,2,4]Triazolo[4,3-a]pyridin-3-yl)-8-(2-(piperidin-2-yl)ethoxy)quinoline]",–,4.22,0.102,0.016,–,–,–,–
"c1cc(OC2CCCNCC2)c2nc(-c3nnc4ccccn34)ccc2c1 (stereo not drawn) [Example 52, 2-([1,2,4]triazolo[4,3-a]pyridin-3-yl)-8-(azepan-4-yloxy)quinoline dihydrochloride]",–,–,–,–,–,0.002,0.11,0.004
"CON(C)C(=O)[C@@H]1C[C@@H](Oc2cccc3ccc(-c4nnc5ccccn45)nc23)CCN1 [Example 55, (2S,4S)-4-(2-([1,2,4]triazolo[4,3-a]pyridin-3-yl)quinolin-8-yloxy)-N-methoxy-N-methylpiperidine-2-carboxamide dihydrochloride]",–,10,0.222,0.07,–,–,–,–
"COC(=O)[C@@H]1C[C@@H](Oc2cccc3ccc(-c4nnc5ccccn45)nc23)CCN1 [Example 13, (2S,4S)-Methyl 4-(2-([1,2,4]triazolo[4,3-a]pyridin-3-yl)quinolin-8-yloxy)piperidine-2-carboxylate]",–,0.189,0.009,–,–,–,–,–
"Fc1cc(OC2CCNCCC2F)c2nc(-c3nnc4ccccn34)ccc2c1 (single isomer, unassigned) [Example 120, 2-([1,2,4]triazolo[4,3-a]pyridin-3-yl)-6-fluoro-8-((cis)-5-fluoroazepan-4-yloxy)quinoline]",–,0.959,0.0109,0.011,–,–,–,–
"CCC(Oc1cccc2ccc(-c3nnc4ccccn34)nc12)[C@@H](CC)CN (stereo partly drawn) [Example 30, (2S)-3-(2([1,2,4]triazolo[4,3-a]pyridin-3-yl)quinolin-8-yloxy)-2-ethylpentan-1-amine]",–,0.318,0.013,0.003,–,–,–,–
"c1cc(N[C@@H]2CCNC2)c2nc(-c3nnc4ccccn34)ccc2c1 [Example 5, (R)-2-([1,2,4]Triazolo[4,3-a]pyridin-3-yl)-N-(pyrrolidin-3-yl)quinolin-8-amine]",–,2.02,0.02,0.005,–,–,–,–
"Fc1ccc2nnc(-c3ccc4cccc(O[C@H]5CCNC[C@H]5F)c4n3)n2c1 (relative stereo) [Example 59, 2-(6-fluoro-[1,2,4]triazolo[4,3-a]pyridin-3-yl)-8-((cis)-3-fluoropiperidin-4-yloxy)quinoline]",–,2.87,0.098,0.055,–,–,–,–
"CC[C@@H](CN)C(C)Oc1cccc2ccc(-c3nnc4ccccn34)nc12 (stereo partly drawn) [Example 32, (2S)-3-(2-([1,2,4]triazolo[4,3-a]pyridin-3-yl)quinolin-8-yloxy)-2-ethylbutan-1-amine]",–,0.399,0.017,0.004,–,–,–,–
"NCCCOc1cccc2ccc(-c3nnc4ccccn34)nc12 [Example 10, 3-(2-([1,2,4]Triazolo[4,3-a]pyridin-3-yl)quinolin-8-yloxy)propan-1-amine]",–,0.514,0.013,–,–,–,–,–
"Fc1cc(O[C@H]2CCNC[C@H]2F)c2nc(-c3nnc4ccccn34)ccc2c1 (relative stereo) [Example 88, 2-([1,2,4]triazolo[4,3-a]pyridin-3-yl)-6-fluoro-8-((cis)-3-fluoropiperidin-4-yloxy)quinoline]",–,0.502,0.024,0.008,–,–,–,–
"Fc1cc(OC2CCNCCC2F)c2nc(-c3nnc4ccccn34)ccc2c1 (single isomer, unassigned) [Example 121, 2-([1,2,4]triazolo[4,3-a]pyridin-3-yl)-6-fluoro-8-(trans-5-fluoroazepan-4-yloxy)quinoline]",–,0.52,0.0161,0.0305,–,–,–,–
"CC(C)(COc1cccc2ccc(-c3nnc4ccccn34)nc12)[C@@H](O)CO [Example 113, (R)-4-(2-([1,2,4]triazolo[4,3-a]pyridin-3-yl)quinolin-8-yloxy)-3,3-dimethylbutane-1,2-diol]",–,0.167,0.0088,–,–,–,–,–
"c1cc(O[C@H]2CCNC2)c2nc(-c3nnc4ccccn34)ccc2c1 [Example 12, (S)-2-([1,2,4]Triazolo[4,3-a]pyridin-3-yl)-8-(pyrrolidin-3-yloxy)quinoline]",–,4.91,0.077,0.03,–,–,–,–
"c1cc(OC2CCCNCC2)c2nc(-c3nnc4ccccn34)ccc2c1 (single isomer, unassigned) [Example 127, 2-([1,2,4]triazolo[4,3-a]pyridin-3-yl)-8-(azepan-4-yloxy)quinoline]",–,0.438,0.0068,0.0048,–,–,–,–
"F[C@H]1CNCC[C@@H]1Oc1cccc2ccc(-c3nnc4ccccn34)nc12 (relative stereo) [Example 25, 2-([1,2,4]triazolo[4,3-a]pyridin-3-yl)-8-((trans)-3-fluoropiperidin-4-yloxy)quinoline]",–,0.686,0.02,0.004,–,–,–,–
"NC(=O)N1CCC(Oc2cccc3ccc(-c4nnc5ccccn45)nc23)CC1 [Example 40, 4-(2-([1,2,4]triazolo[4,3-a]pyridin-3-yl)quinolin-8-yloxy)piperidine-1-carboxamide]",–,1.28,0.046,0.012,–,–,–,–
"CC(C)(COc1cc(F)cc2ccc(-c3nnc4ccccn34)nc12)[C@@H](O)CO [Example 112, (R)-4-(2-([1,2,4]triazolo[4,3-a]pyridin-3-yl)-6-fluoroquinolin-8-yloxy)-3,3-dimethylbutane-1,2-diol dihydrochloride]",–,0.3,0.0101,0.0033,–,–,–,–
"c1cc(OC2CCNCC2)c2nc(-c3nnc4ccccn34)ccc2c1 [Example 9, 2-([1,2,4]triazolo[4,3-a]pyridin-3-yl)-8-(piperidin-4-yloxy)quinoline di-trifluoroacetate]",–,–,0.017,0.004,0.57,–,–,–
"CCCC(Oc1cccc2ccc(-c3nnc4ccccn34)nc12)[C@H](CC)CN (stereo partly drawn) [Example 35, (2R)-3-(2-([1,2,4]triazolo[4,3-a]pyridin-3-yl)quinolin-8-yloxy)-2-ethylhexan-1-amine]",–,1.36,0.048,0.01,–,–,–,–
"CNCC(C)(C)COc1cccc2ccc(-c3nnc4ccccn34)nc12 [Example 28, 3-(2-([1,2,4]triazolo[4,3-a]pyridin-3-yl)quinolin-8-yloxy)-N,2,2-trimethylpropan-1-amine]",–,0.143,0.004,–,–,–,–,–
"CC(C)(CO)COc1cccc2ccc(-c3nnc4ccccn34)nc12 [Example 24, 3-(2-([1,2,4]triazolo[4,3-a]pyridin-3-yl)quinolin-8-yloxy)-2,2-dimethylpropan-1-ol]",–,0.077,0.004,–,–,–,–,–
"COC(=O)[C@@H]1C[C@H](Oc2cccc3ccc(-c4nnc5ccccn45)nc23)CN1 [Example 87, (2S,4S)-methyl 4-(2-([1,2,4]triazolo[4,3-a]pyridin-3-yl)quinolin-8-yloxy)pyrrolidine-2-carboxylate]",–,–,0.248,0.167,–,–,–,–
